Data published in PubChem BioAssay AID248 (DTP/NCI, 2004).
Where “and” joins values, the source holds several entries; their conditions need not be identical. Equal entries are not always repeated. Toxic doses and inconclusive results are not listed. Cut-off read from the data, not from the text of the source: active = T/C of 150% or more; inactive = T/C below 125%.

Tested on: L1210 leukemia ip in BDF1 mice, survival T/C
Assay: NCI In Vivo Anticancer Drug Screen. Data for tumor model L1210 Leukemia (intraperitoneal) in B6D2F1 (BDF1) mice
Conditions: endpoint: mean survival time, higher = longer survival
Procedure, shortened: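 Read-out is survival time, reported as the treated-group measurement over the vehicle-control measurement.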

[1] = dose: 100.0 mg/kg/injection, schedule: Q01DX005 (ip), vehicle: saline
[2] = dose: 200.0 mg/kg/injection, schedule: Q01DX005 (ip), vehicle: saline
[3] = dose: 25.0 mg/kg/injection, schedule: Q04DX003 (ip), vehicle: Klucel (hydroxypropylcellulose) (HPC)
[4] = dose: 50.0 mg/kg/injection, schedule: Q04DX003 (ip), vehicle: Klucel (hydroxypropylcellulose) (HPC)
[5] = dose: 100.0 mg/kg/injection, schedule: Q04DX003 (ip), vehicle: Klucel (hydroxypropylcellulose) (HPC)
[6] = dose: 50.0 mg/kg/injection, schedule: Q01DX009 (ip), vehicle: Klucel (hydroxypropylcellulose) (HPC)
[7] = dose: 100.0 mg/kg/injection, schedule: Q01DX001 (ip), vehicle: saline
[8] = dose: 100.0 mg/kg/injection, schedule: Q01DX009 (ip), vehicle: Klucel (hydroxypropylcellulose) (HPC)
[9] = dose: 200.0 mg/kg/injection, schedule: Q01DX001 (ip), vehicle: saline
[10] = dose: 200.0 mg/kg/injection, schedule: Q01DX009 (ip), vehicle: Klucel (hydroxypropylcellulose) (HPC)
[11] = dose: 400.0 mg/kg/injection, schedule: Q01DX001 (ip), vehicle: saline
[12] = dose: 200.0 mg/kg/injection, schedule: Q04DX003 (ip), vehicle: Klucel (hydroxypropylcellulose) (HPC)
[13] = dose: 400.0 mg/kg/injection, schedule: Q01DX009 (ip), vehicle: Klucel (hydroxypropylcellulose) (HPC)
[14] = dose: 400.0 mg/kg/injection, schedule: Q04DX003 (ip), vehicle: Klucel (hydroxypropylcellulose) (HPC)
[15] = dose: 12.5 mg/kg/injection, schedule: Q01DX009 (ip), vehicle: Klucel (hydroxypropylcellulose) (HPC)
[16] = dose: 25.0 mg/kg/injection, schedule: Q01DX009 (ip), vehicle: Klucel (hydroxypropylcellulose) (HPC)
[17] = dose: 100.0 mg/kg/injection, schedule: Q01DX009 (ip), vehicle: saline with Tween-80
[18] = dose: 200.0 mg/kg/injection, schedule: Q01DX009 (ip), vehicle: saline with Tween-80
[19] = dose: 400.0 mg/kg/injection, schedule: Q01DX009 (ip), vehicle: saline with Tween-80
[20] = dose: 100.0 mg/kg/injection, schedule: Q04DX003 (ip), vehicle: saline
[21] = dose: 200.0 mg/kg/injection, schedule: Q04DX003 (ip), vehicle: saline

Measured: T/C

C=CCc1cn(C2OC(COC(=O)c3ccccc3)C(OC(=O)c3ccccc3)C2OC(=O)c2ccccc2)c(=S)[nH]c1=O (configuration not stated)
inactive: [1] 95 % of control | [2] 98 % of control

OCc1ccc(-c2ccccc2)cc1
inactive: [3] 108 % of control | dose: 50.0 mg/kg/injection, schedule: Q01DX005 (ip), vehicle: saline 94 % of control | [4] 103 % of control | [1] 112 % of control | [5] 103 % of control | [2] 100 % of control | dose: 400.0 mg/kg/injection, schedule: Q01DX005 (ip), vehicle: saline 102 % of control

CCN1C(=O)c2ccccc2C1=O
inactive: [6] 107 % of control | [7] 96 % of control | [8] 94 % of control | [9] 98 % of control | [10] 89 % of control | [11] 88 % of control

COCCCNS(=O)(=O)c1ncnc2nc[nH]c12
inactive: dose: 10.0 mg/kg/injection, schedule: Q01DX Z (ip), vehicle: carboxymethylcellulose (CMC) 105 % of control | dose: 20.0 mg/kg/injection, schedule: Q01DX Z (ip), vehicle: carboxymethylcellulose (CMC) 103 % of control | dose: 25.0 mg/kg/injection, schedule: Q01DX Z (ip), vehicle: carboxymethylcellulose (CMC) 105 % of control | dose: 40.0 mg/kg/injection, schedule: Q01DX Z (ip), vehicle: carboxymethylcellulose (CMC) 103 % of control | dose: 50.0 mg/kg/injection, schedule: Q01DX Z (ip), vehicle: carboxymethylcellulose (CMC) 110 % of control | dose: 80.0 mg/kg/injection, schedule: Q01DX Z (ip), vehicle: carboxymethylcellulose (CMC) 93 % of control | dose: 100.0 mg/kg/injection, schedule: Q01DX Z (ip), vehicle: carboxymethylcellulose (CMC) 117 % of control | dose: 125.0 mg/kg/injection, schedule: Q01DX Z (ip), vehicle: carboxymethylcellulose (CMC) 88 % of control | dose: 250.0 mg/kg/injection, schedule: Q01DX Z (ip), vehicle: carboxymethylcellulose (CMC) 87 % of control

CCOC(=O)C(Cc1ccccc1)NP(=O)(OCCCl)OCCCl (configuration not stated)
inactive: [8] 104 % of control | [5] 95 % of control | [10] 96 % of control | [12] 95 % of control | [13] 101 % of control | [14] 87 % of control

O=C1C=C(Nc2ccc(Cl)cc2)c2ccccc2C1=O
inactive: dose: 100.0 mg/kg/injection, schedule: Q01DX001 (ip), vehicle: other 98 % of control | dose: 200.0 mg/kg/injection, schedule: Q01DX001 (ip), vehicle: other 90 % of control | dose: 400.0 mg/kg/injection, schedule: Q01DX001 (ip), vehicle: other 95 % of control

C[N+]12CCCc3cc(CO)cc(c31)CCC2
inactive: [15] 101 % of control | dose: 12.5 mg/kg/injection, schedule: Q04DX003 (ip), vehicle: Klucel (hydroxypropylcellulose) (HPC) 97 % of control | [16] 105 % of control | [3] 92 % of control | [4] 97 % of control

NCC(OC1CCCCC1)C(Cl)(Cl)Cl (configuration not stated)
inactive: dose: 50.0 mg/kg/injection, schedule: Q01DX009 (ip), vehicle: saline with Tween-80 92 % of control | [17] 97 % of control

CCOC(=O)C(Cc1ccccc1Cl)(NC(C)=O)C(=O)OCC
inactive: [17] 93 % of control | [18] 100 % of control | [19] 104 % of control

O=C(Nc1ccccc1C(F)(F)F)OCCOc1ccc([N+](=O)[O-])cc1
inactive: [5] 89 % of control | [12] 87 % of control | [14] 92 % of control

c1ccc(-c2ccc([Si](c3ccccc3)(c3ccccc3)c3ccc(-c4ccccc4)cc3)cc2)cc1
inactive: [6] 104 % of control | [4] 94 % of control | [8] 93 % of control | [5] 96 % of control | [10] 87 % of control | [12] 98 % of control

COC(=O)C(C)C(C)(O)C(C)(C)C (configuration not stated)
inactive: dose: 100.0 mg/kg/injection, schedule: Q04DX003 (ip), vehicle: saline with Tween-80 101 % of control

CC(=O)OCCC/C(=C\c1ccc(Br)cc1)[N+](=O)[O-]
inactive: dose: 100.0 mg/kg/injection, schedule: Q01DX001 (ip), vehicle: carboxymethylcellulose (CMC) 97 % of control | dose: 200.0 mg/kg/injection, schedule: Q01DX001 (ip), vehicle: carboxymethylcellulose (CMC) 97 % of control

c1ccc2cc3nc4cc5ccccc5cc4nc3cc2c1
inactive: dose: 100.0 mg/kg/injection, schedule: Q01DX001 (ip), vehicle: acetone 95 % of control | [17] 93 % of control | dose: 200.0 mg/kg/injection, schedule: Q01DX001 (ip), vehicle: acetone 95 % of control | [18] 103 % of control | dose: 400.0 mg/kg/injection, schedule: Q01DX001 (ip), vehicle: acetone 92 % of control | [19] 87 % of control

O=c1c(Br)c[nH]cc1Br
inactive: [15] 91 % of control | [16] 111 % of control | [6] 91 % of control | [8] 98 % of control

O=P(Cc1ccccc1)(Cc1ccccc1)c1ccccc1
inactive: [3] 102 % of control | [4] 118 % of control | [5] 95 % of control and 104 % of control

O=S(=O)(Nc1nccs1)c1ccc(Nc2ccnc3cc(Cl)ccc23)cc1
inactive: [7] 93 % of control | [9] 95 % of control | [11] 87 % of control

CC1(C)N=C2OCCN2C1=O
inactive: dose: 12.5 mg/kg/injection, schedule: Q04DX003 (ip), vehicle: saline 101 % of control | dose: 25.0 mg/kg/injection, schedule: Q04DX003 (ip), vehicle: saline 111 % of control | dose: 50.0 mg/kg/injection, schedule: Q04DX003 (ip), vehicle: saline 93 % of control | [20] 101 % of control | [21] 98 % of control and 102 % of control | dose: 300.0 mg/kg/injection, schedule: Q04DX003 (ip), vehicle: saline 104 % of control

CC(=O)N(c1ccccn1)c1ccccn1
inactive: [7] 106 % of control | [20] 97 % of control | [9] 104 % of control | [21] 105 % of control

NC(=O)C(Cc1ccc(O)cc1)NC(=O)c1ccccc1 (configuration not stated)
inactive: [8] 95 % of control | [5] 105 % of control | [10] 90 % of control | [12] 102 % of control | [13] 93 % of control | [14] 94 % of control
